Measurements: patent US20250368623A1, “PYRIDAZINONE-DERIVED COMPOUNDS FOR THE MODULATION OF MYC AND FOR MEDICAL USES” (GENETIC INTELLIGENCE, INC, priority 2022, published 2025)

Columns and labels:
Assay type in all cases: cell-based
MYC protein [1] = assay: MYC HTRF assay, MYC protein level in human cell lines; conditions: about 20 μM, 2-day incubation, human cell lines (e.g., A549, HepG2), vs DMSO-treated sample
Procedure: The MYC homogenous time-resolved fluorescence (HTRF) assay kit (CisBio/Perkin Elmer 63ADK053PEG) is used to quantify the level of MYC protein in human cell lines (e.g., A549, HepG2) following treatment with test compounds, according to the following protocol. Human cells cultured in DMEM-10% FBS media are seeded at 20,000 cells per well in a 96-well plate. After 1 day, the cells are treated with test compounds at a final concentration of about 20 μM. After a 2-day incubation period, the supernatant is removed from the wells and the HTRF assay is carried out according to the kit manufacturer's protocol. In brief, lysis buffer #4 is added to create cell lysates. 10 μL of cell lysate is added to 10 μL of premixed antibody solution (anti-human My c-Eu cryptate antibody and anti-human Myc-d2 antibody) prepared in detection buffer #3 in a 384-well low-volume white-walled plated. After 3 h of incubation, fluorescence readings are taken at the emission wavelengths of donor and acceptor fluorophores (620 nm and 665 nm respectively) using a HTRF-compatible plate reader. The ratio of acceptor and donor fluorescence emission signals for each sample is calculated by dividing the fluorescence signal at 665 nm by the signal at 620 nm, and further normalized by dividing with the concentration of total protein in that sample as determined by the BCA assay. The values so obtained are presented as a percentage of that of the no-compound, solvent only (DMSO)-treated samples. A lower percentage of MYC protein in a sample with respect to the DMSO-treated sample indicates greater percentage reduction in MYC protein level due to the test compound, and vice versa.

MYC RNA = assay: RT-qPCR of MYC RNA in human cancer cell lines; conditions: 24 h, about 1 μM, 1-day incubation, e.g., A549, HepG2, beta-actin normalized, vs DMSO, read-out: % reduction of MYC RNA
Procedure: The level of reduction of MYC RNA following treatment with test compounds is assessed using RT-qPCR according to the following protocol. The human cancer cell lines (e.g., A549, HepG2) are seeded at 20,000 cells per well in a 96-well plate. After 1 day, the cells are treated with test compounds at a final concentration of about 1 μM. After a 1-day incubation period, the supernatant is removed from the wells and lysis solution from the Cells-to-CT 1-Step Power SYBR Green Kit (Invitrogen A25599) is added to create cell lysates, according to the kit manufacturer's protocol. The kit manufacturer's protocol is then followed to perform RT-qPCR for each sample using a pair of MYC-specific primers (e.g., SEQ ID NO: 4 and SEQ ID NO: 5) to detect MYC RNA, as well as a pair of beta-actin-specific primers (e.g., SEQ ID NO: 6 and SEQ ID NO: 7) to detect beta-actin RNA, which serves as a loading control. The relative expression levels of MYC and beta-actin RNAs are calculated using a standard curve generated from a dilution series of untreated cell lysates. The normalized level of MYC RNA following treatment with a test compound is calculated by dividing the relative expression level of MYC in the sample by the relative expression level of beta actin in the same sample. The value so obtained is presented as a percentage of that of the no-compound, solvent only (DMSO)-treated sample. A lower percentage of MYC RNA in a sample with respect to the DMSO-treated sample indicates greater percentage reduction in MYC RNA levels due to the test compound, and vice versa.

HepG2 [2] = assay: CCK-8 cell viability assay, HepG2; conditions: Homo sapiens; CCK-8, HepG2, 2-day or 3-day incubation, cytotoxic effect
Procedure: The effect of test compounds on cell viability is determined using the CCK-8 assay kit (Dojindo CK04-1000) according to the following protocol. The human cancer cell lines (e.g., A549, HepG2, JeKo-1, MDA-MB-231, etc.) and non-cancer human cell lines (e.g., HEK-293, HaCaT, etc.), are seeded at 20,000 cells per well in a 96-well plate. After 1 day, the cells are treated with test compounds at various final concentrations (e.g., 10 nM, 31.6 nM, 100 nM, 316 nM, 1 μM, 3.16 μM, 10 μM, 20 μM, etc.). After a 2-day or 3-day incubation period, 10 μL of CCK-8 solution, which contains the WST-8 dye, is added to each well according to the kit manufacturer's protocol. After incubation for 1-4 hours, the absorbance at 450 nm is measured using a microplate reader. The absorbance at 450 nm measures the amount of WST-8 that is reduced to WST-8 formazan by cellular dehydrogenases, which is directly proportional to the number of living cells. The cytotoxic effect of test compounds at different concentrations is calculated by subtracting from 1 the ratio of absorbance of the compound-treated sample at 450 nm to that of the no-compound, solvent only (DMSO)-treated sample. […] The IC50 values for the cytotoxic effect of each test compound in A549, HepG2, JeKo-1, and/or MDA-MB-231 cells are determined by plotting a dose-response curve to calculate the concentration of test compound that produces half of the maximum cytotoxic effect.

HEK-293 [3] = assay: ApoTox-Glo Triplex assay (live-dead ratio), HEK-293; conditions: Homo sapiens, HEK293, 48 h, HEK-293, 2-day incubation
Procedure: The effects of test compounds on cell viability and apoptosis are determined using the ApoTox-Glo Triplex assay kit (Promega G6320) according to the following protocol. The human cancer cell line (e.g., HepG2) and a non-cancer human cell line (e.g., HEK-293), are seeded at 20,000 cells per well in a 96-well plate. After 1 day, the cells are treated with test compounds at various final concentrations (e.g., 10 nM, 31.6 nM, 100 nM, 316 nM, 1 μM, 3.16 μM, 10 μM, 20 μM, etc.). After a 2-day incubation period, the ApoTox-Glo Triplex assay is performed according to the kit manufacturer's protocol. […] After incubation for 30 minutes at 37° C., the fluorescence signal is measured at two wavelength sets (400Ex/505Em) and (485Ex/520Em) to assess live-cell protease activity and dead-cell protease activity respectively. […] After incubation for 30 minutes at room temperature, the luminescent signal is measured using a microplate reader. […]
The cytotoxic effect of test compounds according to the ApoTox-Glo Triplex assay is calculated as follows. The live-dead ratio is calculated by dividing the fluorescence signal for live-cell protease activity with the fluorescence signal for dead-cell protease activity. […]

HEK-293 [4] = assay: CellTiter-Glo 2.0 cell viability assay, HEK-293; conditions: Homo sapiens, HEK293, 48 h; CellTiter-Glo 2.0, HEK-293, 2-day incubation
Procedure: (§2) The effect of test compounds on cell viability is also determined using the CellTiter-Glo 2.0 assay kit (Promega G9241) according to the following protocol. The human cancer cell line (e.g., HepG2) and a non-cancer human cell line (e.g., HEK-293), are seeded at 20,000 cells per well in a 96-well plate. After 1 day, the cells are treated with test compounds at various concentrations (e.g., 10 nM, 31.6 nM, 100 nM, 316 nM, 1 μM, 3.16 μM, 10 μM, 20 μM, etc.). After a 2-day incubation period, the CellTiter-Glo 2.0 assay is performed according to the kit manufacturer's protocol. […] The contents are mixed for 2 minutes on an orbital shaker to induce cell lysis, and incubated for 10 minutes at room temperature, following which the luminescent signal is measured using a microplate reader. […] The cytotoxic effect of test compounds at different concentrations is calculated by subtracting from 1 the ratio of the luminescence signal of the compound-treated sample to that of the no-compound, solvent only (DMSO)-treated sample. […] The IC50 values for the cytotoxic effect of each test compound in HepG2 cells are determined by plotting a dose-response curve to calculate the concentration of test compound that produces half of the maximum cytotoxic effect. […]

HepG2 [5] = assay: CellTiter-Glo 2.0 cell viability assay, HepG2; conditions: Homo sapiens, 48 h; CellTiter-Glo 2.0, HepG2, 2-day incubation
Procedure: as §2

MYC protein [6] = assay: Western blot of MYC protein in human cancer cell lines; conditions: about 1 μM, 2-day incubation, e.g., A549 or HepG2, GAPDH loading control, vs DMSO
Procedure: The level of reduction of MYC protein following treatment with test compounds is also assessed by Western blot according to the following protocol. The human cancer cell lines (e.g., A549 or HepG2) are seeded at 20,000 cells per well in a 96-well plate. After 1 day, the cells are treated with test compounds at a final concentration of about 1 μM. After a 2-day incubation period, the supernatant is removed from the wells and RIPA buffer is added to create cell lysates. The lysates are analyzed by Western blot and probed with a MYC-specific antibody (e.g., Proteintech 10828-1-AP) together with a GAPDH-specific antibody (e.g., Proteintech 10494-1-AP) to serve as loading control. The intensities of Western blot bands are quantified by FIJI (Image J). The relative expression value of MYC following treatment with a test compound is calculated by dividing the intensity of the MYC band of the sample with the intensity of its own GAPDH band. The value so obtained is presented as a percentage of that of the no-compound, solvent only (DMSO)-treated sample. A lower percentage of MYC protein in a sample with respect to the DMSO-treated sample indicates greater percentage reduction in MYC protein level due to the test compound, and vice versa.

MDA-MB-231 = assay: CCK-8 cell viability assay, MDA-MB-231; conditions: Homo sapiens; CCK-8, MDA-MB-231, 2-day or 3-day incubation, cytotoxic effect
Procedure: (§1) The effect of test compounds on cell viability is determined using the CCK-8 assay kit (Dojindo CK04-1000) according to the following protocol. The human cancer cell lines (e.g., A549, HepG2, JeKo-1, MDA-MB-231, etc.) and non-cancer human cell lines (e.g., HEK-293, HaCaT, etc.), are seeded at 20,000 cells per well in a 96-well plate. After 1 day, the cells are treated with test compounds at various final concentrations (e.g., 10 nM, 31.6 nM, 100 nM, 316 nM, 1 μM, 3.16 μM, 10 μM, 20 μM, etc.). After a 2-day or 3-day incubation period, 10 μL of CCK-8 solution, which contains the WST-8 dye, is added to each well according to the kit manufacturer's protocol. After incubation for 1-4 hours, the absorbance at 450 nm is measured using a microplate reader. The absorbance at 450 nm measures the amount of WST-8 that is reduced to WST-8 formazan by cellular dehydrogenases, which is directly proportional to the number of living cells. The cytotoxic effect of test compounds at different concentrations is calculated by subtracting from 1 the ratio of absorbance of the compound-treated sample at 450 nm to that of the no-compound, solvent only (DMSO)-treated sample. A higher number indicates a greater cytotoxic effect of the test compound on cells (corresponding to a greater reduction in cellular dehydrogenase activity), and vice versa. The IC50 values for the cytotoxic effect of each test compound in A549, HepG2, JeKo-1, and/or MDA-MB-231 cells are determined by plotting a dose-response curve to calculate the concentration of test compound that produces half of the maximum cytotoxic effect. The cytotoxic effect and IC50 of test compounds are also measured in a non-cancer human cell line (e.g., HEK-293, and/or HaCaT) as a proxy for healthy cells to determine the therapeutic window of the test compounds (i.e., the concentration range at which the test compounds selectively kill cancer cells but not healthy cells). The therapeutic index of a test compound is defined herein as its IC50 in HEK-293 cells divided by its IC50 in HepG2 cells.

JeKo-1 = assay: CCK-8 cell viability assay, JeKo-1; conditions: Homo sapiens; CCK-8, JeKo-1, 2-day or 3-day incubation, cytotoxic effect
Procedure: as §1

A549 = assay: CCK-8 cell viability assay, A549; conditions: Homo sapiens; CCK-8, A549, 2-day or 3-day incubation, cytotoxic effect
Procedure: The effect of test compounds on cell viability is determined using the CCK-8 assay kit (Dojindo CK04-1000) according to the following protocol. The human cancer cell lines (e.g., A549, HepG2, JeKo-1, MDA-MB-231, etc.) and non-cancer human cell lines (e.g., HEK-293, HaCaT, etc.), are seeded at 20,000 cells per well in a 96-well plate. After 1 day, the cells are treated with test compounds at various final concentrations (e.g., 10 nM, 31.6 nM, 100 nM, 316 nM, 1 μM, 3.16 μM, 10 μM, 20 μM, etc.). After a 2-day or 3-day incubation period, 10 μL of CCK-8 solution, which contains the WST-8 dye, is added to each well according to the kit manufacturer's protocol. After incubation for 1-4 hours, the absorbance at 450 nm is measured using a microplate reader. The absorbance at 450 nm measures the amount of WST-8 that is reduced to WST-8 formazan by cellular dehydrogenases, which is directly proportional to the number of living cells. The cytotoxic effect of test compounds at different concentrations is calculated by subtracting from 1 the ratio of absorbance of the compound-treated sample at 450 nm to that of the no-compound, solvent only (DMSO)-treated sample. […]

Compound	inhibition at 1 µM (MYC RNA) [%]	IC50 (HepG2 [2]) [µM]	% reduction of MYC protein (MYC protein [6]) [%]	further results
Cc1cc(N2CCC(Cn3nc(-c4sc(C)nc4C)ccc3=O)CC2)ncn1 [6-(2,4-dimethylthiazol-5-yl)-2-((1-(6-methylpyrimidin-4-yl)piperidin-4-yl)methyl)pyridazin-3(2H)-one]	19			% reduction of MYC protein (MYC protein [1]): 19%
Cc1cncc(N2CCC(Cn3nc(-n4cncn4)ccc3=O)CC2)n1 [2-((1-(6-methylpyrazin-2-yl)piperidin-4-yl)methyl)-6-(1H-1,2,4-triazol-1-yl)pyridazin-3(2H)-one]		11.2		
Cc1nc(C)c(-c2ccc(=O)n(CC3CCN(c4ncnc5[nH]cnc45)CC3)n2)s1 [2-((1-(9H-purin-6-yl)piperidin-4-yl)methyl)-6-(2,4-dimethylthiazol-5-yl)pyridazin-3(2H)-one]	1			% reduction of MYC protein (MYC protein [1]): 17%
CC(=O)O[C@H]1C(=O)[C@@]2(C)[C@H]([C@H](OC(=O)c3ccccc3)[C@]3(O)C[C@H](OC(=O)[C@H](O)[C@@H](NC(=O)c4ccccc4)c4ccccc4)C(C)=C1C3(C)C)[C@]1(OC(C)=O)CO[C@@H]1C[C@@H]2O [paclitaxel, reference compound]				IC50 (HEK-293 [3]): 6.9 µM; IC50 (HEK-293 [4]): 27 µM; IC50 (HepG2 [5]): 7.5 µM
O=c1ccc(-c2ccncc2)nn1CC1CN(c2ncnc3[nH]cnc23)C1 [2-((1-(9H-purin-6-yl)azetidin-3-yl)methyl)-6-(pyridin-4-yl)pyridazin-3(2H)-one]		6		
O=c1ccc(-n2cncn2)nn1CC1CCN(c2ccc3nnc(C(F)(F)F)n3n2)CC1 [6-(1H-1,2,4-triazol-1-yl)-2-((1-(3-(trifluoromethyl)-[1,2,4]triazolo[4,3-b]pyridazin-6-yl)piperidin-4-yl)methyl)pyridazin-3(2H)-one]	20	5.7	29	
Cc1nc(N2CCC(Cn3nc(-c4sc(C)nc4C)ccc3=O)CC2)c2ccncc2n1 [6-(2,4-dimethylthiazol-5-yl)-2-((1-(2-methylpyrido[3,4-d]pyrimidin-4-yl)piperidin-4-yl)methyl)pyridazin-3(2H)-one]	5			% reduction of MYC protein (MYC protein [1]): 16%
O=c1ccc(-n2cccn2)nn1CC1CCN(c2ccc3nnc(C(F)(F)F)n3n2)CC1 [6-(1H-pyrazol-1-yl)-2-((1-(3-(trifluoromethyl)-[1,2,4]triazolo[4,3-b]pyridazin-6-yl)piperidin-4-yl)methyl)pyridazin-3(2H)-one]	19	18.5	33	
Cc1nc(C)c(-c2ccc(=O)n(CC3CCN(c4ncnc5ncccc45)CC3F)n2)s1 (stereo not shown) [6-(2,4-dimethyl-1,3-thiazol-5-yl)-2-(3-fluoro-1-pyrido[2,3-d]pyrimidin-4-ylpiperidin-4-yl)methylpyridazin-3-one]		0.5		IC50 (MDA-MB-231): 1.1 µM; IC50 (JeKo-1): 0.3 µM
Cc1nc(N2CC(n3nc(-c4ccncc4)ccc3=O)C2)c2cnn(C)c2n1 [2-(1-(1,6-dimethyl-1H-pyrazolo[3,4-d]pyrimidin-4-yl)azetidin-3-yl)-6-(pyridin-4-yl)pyridazin-3(2H)-one]			19	
Cc1nc(C)c(-c2ccc(=O)n(CC3CCN(c4ncnc5ncccc45)CC3(F)F)n2)s1 (stereo not shown) [6-(2,4-dimethyl-1,3-thiazol-5-yl)-2-(3,3-difluoro-1-pyrido[2,3-d]pyrimidin-4-ylpiperidin-4-yl)methylpyridazin-3-one]		0.3		IC50 (A549): 1.8 µM; IC50 (MDA-MB-231): 1 µM; IC50 (JeKo-1): 0.2 µM
Cc1cc(C)n(-c2ccc(=O)n(CC3CN(c4ccc5nnc(C)n5n4)C3)n2)n1 [6-(3,5-dimethyl-1H-pyrazol-1-yl)-2-((1-(3-methyl-[1,2,4]triazolo[4,3-b]pyridazin-6-yl)azetidin-3-yl)methyl)pyridazin-3(2H)-one]	4		48	
Cc1cc(C)n(-c2ccc(=O)n(C3CCN(c4nc5cccnc5n4C)CC3)n2)n1 [6-(3,5-dimethyl-1H-pyrazol-1-yl)-2-(1-(3-methyl-3H-imidazo[4,5-b]pyridin-2-yl)piperidin-4-yl)pyridazin-3(2H)-one]		5.3	24	
O=c1ccc(-n2cccn2)nn1CC1CCN(c2ncnc3cc(F)ccc23)CC1 [2-((1-(7-fluoroquinazolin-4-yl)piperidin-4-yl)methyl)-6-(1H-pyrazol-1-yl)pyridazin-3(2H)-one]	12			% reduction of MYC protein (MYC protein [1]): 74%
